According to patent publication US20150209315A1 (Cumberland Pharmaceuticals, priority 2009, published 2015):

Tests used:
Format in all cases: in vivo, human
[1] = test system: patients undergoing orthopedic surgical procedures; assay: Example 3: adverse events
Experimental: Patients were evaluated and compared for morphine requirements between the active doses and placebo using analysis of variance and covariance procedures at an overall alpha level of 0.05. Secondary efficacy parameters were also evaluated and compared among the treatment groups using appropriate statistical methods described in the statistical analysis section of the protocol. For the adverse events, instead of using an unadjusted Chi-square test and a Cochran-Mantel-Haenszel test adjusted for center to compare treatment groups with respect to the numbers of patients reporting AEs, a Fisher's exact test was used to compare treatment groups for any AE that was reported by five or more patients.

[2] = test system: post-operative adult patients; assay: Example 1: adverse events and safety labs
Experimental: (§1) Patients were evaluated and compared for morphine requirements between the active doses and placebo using analysis of variance and covariance procedures at an overall alpha level of 0.05. Secondary efficacy parameters were also evaluated and compared among the treatment groups using appropriate statistical methods described in the statistical analysis section of the protocol. Safety information was compared between the treatment groups using Chi-Square or Cochran-Mantel-Haenszel test. Demographic, background and baseline information among the treatment groups was also described.

[3] = test system: post-operative adult patients; assay: Example 2: adverse events; conditions: 800 mg
Experimental: as §1

[4] = test system: patients undergoing orthopedic surgical procedures; assay: Example 3: morphine use post-surgery through study hour 28; conditions: for Morphine Requirement, LS Means Difference (95% CI): 800 mg vs placebo; for Morphine Requirement, LS Means Difference (95% CI) / Morphine Requirement, LS Means (SE) / Morphine Requirement, Mean (SD) / Morphine Requirement, Median: Post-Op-28 hours; for decrease in the mean morphine used in the postoperative period / Morphine Requirement, LS Means (SE) / Morphine Requirement, Mean (SD) / Morphine Requirement, Median: 800 mg
[5] = test system: post-operative adult patients; assay: Example 1: treatment failures; conditions: ITT
Experimental: Eligible patients were randomized to one of the three treatment groups. All patients were able (but were not required) to receive morphine until approximately 45 minutes before the end of the surgical procedure. After that time, only fentanyl was allowed until the end of the operation. The first dose of ibuprofen was administered at approximately the initiation of skin closure. […] Other than ibuprofen or placebo, only morphine was administered for pain. […] Additional morphine could be administered at the discretion of the treating physician if adequate pain control had still not been achieved. Patients given non-morphine analgesics were classified as treatment failures. Treatment failures were not replaced. A treatment failure was defined as a patient that required narcotic pain medication, other than morphine, or non-narcotic medications including the use of another NSAID through the treatment period. If other narcotics (other than morphine) or NSAIDS were started, ibuprofen/placebo was discontinued. In the ITT population, there was a numerical trend but not a statistically significant difference for fewer treatment failures in the ibuprofen groups compared to the placebo group: […]

CC(C)Cc1ccc(C(C)C(=O)O)cc1 (centres unmarked) [Ibuprofen, 2-(4-isobutylphenyl) propionic acid]
deaths ([1]; 800 mg): no deaths reported | incidence of serious adverse events vs placebo ([1]; 800 mg): no statistically significant difference | patients that experienced dyspepsia (treatment-emergent adverse events) ([1]; 800 mg vs placebo): significantly more patients in the placebo group | patients that experienced vomiting (treatment-emergent adverse events) ([1]; 800 mg vs placebo): significantly more patients in the intravenous ibuprofen group | patients experiencing nausea vs placebo ([2]; 400 mg): significant reduction | bleeding or renal complications ([2]; 400 mg and 800 mg): no additional bleeding or renal complications | patients experiencing serious adverse events vs placebo ([2]; 400 mg and 800 mg): no significant differences in the number of patients experiencing serious adverse events between groups | Dizziness vs placebo ([2]; 800 mg): experienced more often | patients experiencing diarrhea vs morphine only (placebo) ([2]; 800 mg): significant reduction | patients experiencing nausea vs placebo ([2]; 800 mg): trending toward significance | patient deaths ([2]; 14 day study): no patient deaths | patients experiencing gastrointestinal disorders and fever vs morphine only (placebo) ([2]; both 400 mg and 800 mg): significant reduction | patients experiencing adverse events or serious adverse events vs placebo [3]: no significant differences in the number of patients experiencing adverse events or serious adverse events between groups | Morphine Requirement, LS Means Difference (95% CI) ([4]; AT): −16.6 (−24.7, −8.4) | Morphine Requirement, LS Means Difference (95% CI) ([4]; EEP): −18.1 (−27.2, −9.0) | Morphine Requirement, LS Means Difference (95% CI) ([4]; ITT): −16.4 (−24.6, −8.1) | decrease in the mean morphine used in the postoperative period ([4]; AT): 30.9% | Morphine Requirement, LS Means (SE) ([4]; AT): 44.3 (5.7) | Morphine Requirement, Mean (SD) ([4]; AT): 41.1 (27.3) | Morphine Requirement, Median ([4]; AT): 38.0 | Morphine Requirement, LS Means (SE) ([4]; EEP): 43.7 (5.9) | Morphine Requirement, Mean (SD) ([4]; EEP): 43.7 (26.9) | Morphine Requirement, Median ([4]; EEP): 40.5 | decrease in the mean morphine used in the postoperative period ([4]; EPP): 33.3% | decrease in the mean morphine used in the postoperative period ([4]; ITT): 30.3% | Morphine Requirement, LS Means (SE) ([4]; ITT): 45.2 (5.8) | Morphine Requirement, Mean (SD) ([4]; ITT): 41.9 (26.9) | Morphine Requirement, Median ([4]; ITT): 38.0 | treatment failures, number of patients ([5]; 400 mg): 7 | treatment failures, percent of patients ([5]; 400 mg): 5% | treatment failures, number of patients ([5]; 800 mg): 4 | treatment failures, percent of patients ([5]; 800 mg): 3%
